{"source": "paper PMC4728560", "about": "(Scientific Reports, 2016)", "key": {"cBid+Bax": {"tested_on": "cBid+Bax", "test": "Control liposome permeabilization without Bcl-xL, cBid+Bax", "format": "biochemical", "details": "320 nM pH9 treated TCTP, 100 nM Bax, 20 nM cBid", "method": "(A–E) in vitro reconstitution assay on liposome permeabilization. […] The treated Bcl-xL was then added to reactions containing ANTS-DPX liposomes, 100 nM Bax and 20 nM of either cBid (A,B) or cBidmt1(C,D) at pH 7. Liposome permeabilization was quantified by fluorescence after 5h incubation at 37 °C where 100% release was defined as the fluorescence change due to lipid solubilization with 1% Triton X-100. […] Error bars, std. dev. n = 3. To compare between the TCTP treated groups and the Control group statistically, two-way ANOVA test was performed for (A–D) and one-way ANOVA test was performed for (E). […] Colored asterisks above each data point indicate the statistical significance (*p < 0.05; **p < 0.01, no asterisks if p ≥ 0.05). A complete statistical analysis is provided in Supplementary Table 2–4. (F) Permeabilization assays of mitochondrial membrane by tBid and Bax assessing cytochrome c release. […] Cyto c extra-mito: in the supernatant, analysed by Western blot. […]\nFigure 10 A,B) or cBid mt1 (Supplementary Figure 10 C,D) at pH 7 to quantify the activity of Bcl-xL inhibition of liposome permeablization. […]\nthe Control group (No TCTP) were analyzed through Dunnett's multiple comparisons test at each sample condition (Bcl-XL concentration) for statistical significance. […]\nStatistical significance was analyzed through Dunnett's multiple comparisons test. […]"}, "[1]": {"tested_on": "thymocytes from TCTP^+/− mice", "test": "Complementation (viability) of γ-irradiated TCTP+/− thymocytes", "format": "cell-based, mouse", "details": "γ-irradiation 2.5 Gy; overnight culture; 0 to 1000 nM", "from_the_text": "Figure 4 Molecular/functional analysis of the h1 (P1) subregion of BH3-TCTP. […]\nPeptides used for in vitro assays:\nWT-TCTP (11-31): […]\nR21A-TCTP (11-31): […]\nHybrid Bax/TCTP: […]\nPeptides used for in vivo assays:\nWT-TCTP (1-31) : […]\nHybrid Bax-TCTP: […]\nTCTP-FLAG peptides used for in vivo assays:\nWT-TCTP (1-31)-FLAG : […] DYKDDDDK-OH\nTCTP-Bax-TCTP-FLAG: […]-OH […]\nsubdomain in the BH3 motif is underlined. Peptides were purchased from Smartox […]\nComplementation and transduction experiments\nIn order to complement the haploinsufficient TCTP+/- mice with exogenous TCTP, we took advantage of the fact that the first N-terminal fragment of TCTP functions as a Protein Transduction Domain (PTD), enabling TCTP to penetrate into the cell by a mechanism hitherto […]\nnot well understood23,27-29. […]\nof γ irradiation) and cultured, at a concentration of 10^7 cells/ml, overnight in the presence of […]\n20) at concentrations ranging from 0-1000nM. For the transduction assays using WT-TCTP- […]\nconcentrations were 10 microM, 50 microM and 100 microM.\nγ-irradiated thymocytes were fixed by adding 500ul of PFA 4% and incubated for 20 min at room temperature. The cells were washed twice with PBS and permeabilized for 10 min with 0.2% triton X-100 in PBS at room temp. The cells were washed twice with PBS. Proteins were blocked in Blocking buffer (1% BSA 0.5% Tween in PBS) 1h at room temperature. The primary antibody was added with blocking buffer and placed in a rotating wheel overnight in a cold room.\nCells were then washed 3 times with PBS and incubated with secondary antibody with blocking buffer 1h at room temperature. The cells were washed 3 times with PBS and suspended in 200 µL PBS and used for Flow Cytometry or further used for immunohistochemistry: 5 µl of each sample were mixed with 5 µl of ProLong® Gold antifade reagent (Life Technologies) and visualized, using the IX73 inverted fluorescence microscope and the cellSens™ Dimension […]\nFACS analysis (BD Accuri™ C6 Cytometer (BD Biosciences) of incorporation of exogenous"}}, "data": [{"substance": "TCTP: Translationally Controlled Tumor Protein (TCTP/tpt1), recombinant full-length", "values": [{"measurement": "effect on cBid-Bax induced permeabilization not containing Bcl-xL", "setting": "cBid+Bax", "value": "no effect"}, {"measurement": "rescue of TCTP+/− haploinsufficient phenotype / anti-apoptotic function", "setting": "[1]", "value": "rescue completely the TCTP^+/− haploinsufficient phenotype"}]}]}
